Values joined by “and” are separate entries in the source; they are usually repeats but may differ in a detail not shown here. Equal values may be shown once. Where a SMILES comes first, the peptide text is derived from it.
Legend:
C. tropicalis NCPF 8760 = assay: microbe, parasite or virus in culture; type: cell-based
Outline: (§1)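 Peptides 128→2 μg/mL, 2-fold series; inoculum ~5 × 10^5 CFU/mL from overnight culture (OD600 0.01, mixed 1:1). MHB non-cation-adjusted for bacteria, RPMI 1640 + 2% glucose for fungi. 37 °C, 20 h, OD600. MIC50/MIC90 at 50%/90% inhibition; n ≥ 3.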

C. albicans NCPF 3281 = assay: microbe, parasite or virus in culture; type: cell-based
Outline: as §1

[1] = tested on: C. parapsilosis NCPF 3209; assay: microbe, parasite or virus in culture; type: cell-based
Outline: as §1

C. glabrata NCPF 8018 = assay: microbe, parasite or virus in culture; type: cell-based
Outline: as §1

C. krusei NCPF 3876 = assay: microbe, parasite or virus in culture; type: cell-based
Outline: as §1

K. pneumoniae NCTC 13368 = assay: microbe, parasite or virus in culture; type: cell-based, Klebsiella pneumoniae
Outline: as §1

K. pneumoniae M6 = assay: microbe, parasite or virus in culture; type: cell-based, Klebsiella pneumoniae
Outline: as §1

HaCat cell line = assay: In vitro HaCat cytotoxicity (MTT); type: cell-based, human; conditions: 21 h exposure, OD570, relative to untreated control
Description: The HaCat cell line (Cellonex, South Africa) was cultured in Dulbecco’s Modified Eagle Medium (DMEM) supplemented with 10% heat-inactivated fetal calf serum (FCS) and 1% antibiotic-antimycotic (Abs) and maintained at 5–10% CO2, 37 °C, 95% humidity. For cytotoxicity screening, 5.56 × 10^4 cells/mL were plated in a 96-well plate. After 24 h incubation, the cells are initially exposed to each peptide at a concentration of 256 μg/mL or 0.1% Triton-X-100 as the control for 21 h. If cytotoxicity was observed, at a level of significance of p < 0.0001 compared with the untreated control after 21 h, a dose-response assay was undertaken. Cell viability was determined by adding 10% 3-(4,5-dimethyl-2-thiazolyl)-2,5-diphenyl-2H-tetrazolium bromide (MTT) (1 mg/mL), to each well and after a further 3 h incubation the media was discarded, and the formazan crystals dissolved by adding 25% DMSO in ethanol. The absorbance was measured at OD570 by using the FLUOstar Omega multidetection microplate reader (BMG Labtech). Percentage cell viability was calculated relative to the untreated control. The LC50 was defined as the concentration of AMP treatment that results in 50% lethality of HaCat cells and was determined from the dose-response curves.

E. coli LEC001 = assay: microbe, parasite or virus in culture; type: cell-based, Escherichia coli
Outline: as §1

E. coli NCTC 12923 = assay: microbe, parasite or virus in culture; type: cell-based, Escherichia coli
Outline: as §1

C. auris TDG 1912 = assay: microbe, parasite or virus in culture; type: cell-based, Candida auris
Outline: as §1

A. baumannii ATCC 17978 = assay: microbe, parasite or virus in culture; type: cell-based, Acinetobacter baumannii
Outline: as §1

A. baumannii AYE = assay: microbe, parasite or virus in culture; type: cell-based, Acinetobacter baumannii
Outline: as §1

P. aeruginosa NCTC 13437 = assay: microbe, parasite or virus in culture; type: cell-based, Pseudomonas aeruginosa
Outline: as §1

[2] = tested on: S. aureus (MRSA) NCTC 13616; assay: microbe, parasite or virus in culture; type: cell-based, Staphylococcus aureus
Outline: as §1

S. aureus (MRSA) USA300 = assay: microbe, parasite or virus in culture; type: cell-based, Staphylococcus aureus
Outline: as §1

[3] = tested on: S. aureus (MSSA) ATCC 9144; assay: microbe, parasite or virus in culture; type: cell-based, Staphylococcus aureus
Outline: as §1

human erythrocytes = assay: In vitro hemolytic activity; type: cell-based; conditions: human erythrocytes in PBS, 1 h, 37 °C, OD550; from dose response curves
Description: Potential erythrocyte hemolysis was tested by incubating serial dilutions of the AMPs in PBS with freshly collected erythrocytes at a ratio of 1:1 in 96-well polypropylene V-shape plates for 1 h at 37 °C. Control wells were treated with 0.1% Triton-X-100 to ensure complete lysis or PBS-only to represent no lysis. The erythrocytes were collected by centrifugation and the OD550 of the supernatant was measured using a plate reader. The percentage hemolysis was calculated as [drawing 1] 1 where Apeptide is the absorbance value of erythrocytes exposed to a known peptide concentration, Agrowth control is the absorbance of erythrocytes exposed to 0.1% Triton-X-100 and Ablank is the absorbance of erythrocytes exposed to the PBS. The concentrations at which a peptide caused 10% (HC10) and 50% (HC50) hemolysis was determined from the dose response curves.

P. aeruginosa PAO1 = assay: microbe, parasite or virus in culture; type: cell-based, Pseudomonas aeruginosa; conditions: P. aeruginosa PAO1 (S); shown in µM
Outline: as §1

S. aureus (MRSA) 1199B = assay: microbe, parasite or virus in culture; type: cell-based, Staphylococcus aureus; conditions: S. aureus (MRSA) 1199B (R); shown in µM
Outline: as §1

[4] = C. tropicalis NCPF 8760, shown in µM
[5] = C. albicans NCPF 3281, shown in µM
[6] = C. parapsilosis NCPF 3209, shown in µM
[7] = C. glabrata NCPF 8018, shown in µM
[8] = C. krusei NCPF 3876, shown in µM

Question: Which results are given for CC[C@H](C)[C@H](NC(=O)[C@H](CCCCN)NC(=O)[C@H](CC(C)C)NC(=O)[C@H](C)NC(=O)[C@H](C)NC(=O)[C@H](CCCCN)NC(=O)[C@H](CC(C)C)NC(=O)[C@H](C)NC(=O)[C@H](CCCCN)NC(=O)CNC(=O)[C@H](CC(C)C)NC(=O)[C@H](Cc1ccccc1)NC(=O)[C@H](CO)NC(=O)CNC(=O)[C@H](Cc1ccccc1)NC(=O)CN)C(=O)NCC(=O)N[C@@H](C)C(=O)N[C@@H](CC(N)=O)C(=O)N[C@H](C(=O)N[C@@H](CC(C)C)C(=O)NCC(=O)NCC(=O)N[C@@H](C)C(=O)N1CCC[C@H]1C(=O)N[C@@H](CCC(N)=O)C(=O)N[C@@H](CCC(N)=O)C(=O)O)C(C)C [CPF-P3] (H-GFGSFLGKALKAALKIGANVLGGAPQQ-OH)?
Answer: Modal MIC50 (C. tropicalis NCPF 8760; NCPF 8760, 20 h): 2.9 µM; Modal MIC90 (C. tropicalis NCPF 8760; NCPF 8760, 20 h): 5.8 µM; Modal MIC50 (C. albicans NCPF 3281; NCPF 3281, 20 h): > 47 µM; Modal MIC90 (C. albicans NCPF 3281; NCPF 3281, 20 h): > 47 µM; Modal MIC50 ([1]; NCPF 3209, 20 h): > 47 µM; Modal MIC90 ([1]; NCPF 3209, 20 h): > 47 µM; Modal MIC50 (C. glabrata NCPF 8018; NCPF 8018, 20 h): > 47 µM; Modal MIC90 (C. glabrata NCPF 8018; NCPF 8018, 20 h): > 47 µM; Modal MIC50 (C. krusei NCPF 3876; NCPF 3876, 20 h): 23.5 µM; Modal MIC90 (C. krusei NCPF 3876; NCPF 3876, 20 h): 23.5 µM; Modal MIC (K. pneumoniae NCTC 13368; NCTC 13368, 20 h): 11.8 µM; Modal MIC (K. pneumoniae M6; M6, 20 h): 11.8 µM; % HaCat cell death at initial screening (256μg/mL) ± SD (HaCat cell line): 39.9 ±12.3% and 39.9%; Modal MIC (E. coli LEC001; LEC001, 20 h): 2.9 µM; Modal MIC (E. coli NCTC 12923; NCTC 12923, 20 h): 2.9 µM; Modal MIC50 (C. auris TDG 1912; TDG 1912, 20 h): > 47 µM; Modal MIC90 (C. auris TDG 1912; TDG 1912, 20 h): > 47 µM; Modal MIC (A. baumannii ATCC 17978; ATCC 17978, 20 h): 1.5 µM; Modal MIC (A. baumannii AYE; AYE, 20 h): 2.9 µM; Modal MIC (P. aeruginosa NCTC 13437; NCTC 13437, 20 h): 23.5 µM; Modal MIC ([2]; NCTC 13616, 20 h): 1.5 µM; Modal MIC (S. aureus (MRSA) USA300; USA300, 20 h): 2.9 µM; Modal MIC ([3]; ATCC 9144, 20 h): 1.5 µM

Question: Which “HC10 (concentration causing 10% hemolysis)” value (human erythrocytes) does the source give for CC[C@H](C)[C@H](NC(=O)[C@H](Cc1c[nH]c2ccccc12)NC(=O)[C@H](CC(=O)O)NC(=O)[C@H](Cc1c[nH]c2ccccc12)NC(=O)[C@@H](NC(=O)[C@H](CCCCN)NC(=O)CN)C(C)C)C(=O)N[C@@H](CCCCN)C(=O)N[C@@H](CO)C(=O)N[C@H](C(=O)N[C@@H](C)C(=O)N[C@@H](CCCCN)C(=O)N[C@@H](CCCCN)C(=O)N[C@@H](CC(C)C)C(=O)N[C@@H](Cc1c[nH]c2ccccc12)C(=O)N[C@@H](CC(N)=O)C(N)=O)[C@@H](C)O [Opis16a] (H-GKVWDWIKSTAKKLWN-NH2) here?
Answer: Its value is 155 µg/mL.

Question: And the “HC50 (concentration causing 50% hemolysis)” value (human erythrocytes)?
Answer: The value was greater than 256 µg/mL.

Question: What about the “Modal MIC50” value (C. tropicalis NCPF 8760; [4]) of the same compound?
Answer: The value was 4 µM.

Question: And the “Modal MIC90” value (C. tropicalis NCPF 8760; [4])?
Answer: The value was 4 µM.

Question: And the “Modal MIC50” value (C. albicans NCPF 3281; [5])?
Answer: Its value is 32.4 µM.

Question: What about the “Modal MIC90” value (C. albicans NCPF 3281; [5]) of the same compound?
Answer: Its value is 64.7 µM.

Question: And the “Modal MIC50” value [1, 6]?
Answer: The value was 32.4 µM.

Question: What about the “Modal MIC90” value [1, 6] of the same compound?
Answer: Its value is 64.7 µM.

Question: And the “Modal MIC50” value (C. glabrata NCPF 8018; [7])?
Answer: Its value is 64.7 µM.

Question: And the “Modal MIC90” value (C. glabrata NCPF 8018; [7])?
Answer: Its value is 64.7 µM.

Question: And the “Modal MIC50” value (C. krusei NCPF 3876; [8])?
Answer: The value was 16.2 µM.

Question: And the “Modal MIC90” value (C. krusei NCPF 3876; [8])?
Answer: The value was 16.2 µM.

Question: And the “Modal MIC” value (K. pneumoniae NCTC 13368; K. pneumoniae NCTC 13368 (R), shown in µM)?
Answer: Its value is 8.1 µM.

Question: What about the “Modal MIC” value (K. pneumoniae M6; K. pneumoniae M6 (S), shown in µM) of the same compound?
Answer: The value was 4 µM.

Question: What about the “Modal MIC” value (E. coli LEC001; E. coli LEC001 (R), shown in µM) of the same compound?
Answer: The value was 2 µM.

Question: And the “Modal MIC” value (E. coli NCTC 12923; E. coli NCTC 12923 (S), shown in µM)?
Answer: The value was 2 µM.

Question: What about the “Modal MIC50” value (C. auris TDG 1912; C. auris TDG 1912, 50% growth inhibition, RPMI 1640 + 2% glucose, 37 °C, 20 h, OD600) of the same compound?
Answer: Its value is greater than 128 µg/mL.

Question: What about the “Modal MIC90” value (C. auris TDG 1912; C. auris TDG 1912, 90% growth inhibition, RPMI 1640 + 2% glucose, 37 °C, 20 h, OD600) of the same compound?
Answer: Its value is greater than 128 µg/mL.

Question: What about the “Modal MIC50” value (C. auris TDG 1912; C. auris TDG 1912, shown in µM) of the same compound?
Answer: Its value is greater than 64.7 µM.

Question: And the “Modal MIC90” value (C. auris TDG 1912; C. auris TDG 1912, shown in µM)?
Answer: Its value is greater than 64.7 µM.

Question: What about the “Modal MIC” value (A. baumannii ATCC 17978; A. baumannii ATCC 17978 (S), shown in µM) of the same compound?
Answer: The value was 1 µM.

Question: What about the “Modal MIC” value (A. baumannii AYE; A. baumannii AYE (R), shown in µM) of the same compound?
Answer: Its value is 1 µM.

Question: And the “Modal MIC” value (P. aeruginosa PAO1)?
Answer: The value was 64.7 µM.

Question: And the “Modal MIC” value (P. aeruginosa NCTC 13437; P. aeruginosa NCTC 13437 (R), shown in µM)?
Answer: The value was 16.2 µM.

Question: And the “Modal MIC” value ([2]; S. aureus (MRSA) NCTC 13616 (R), shown in µM)?
Answer: The value was 2 µM.

Question: What about the “Modal MIC” value (S. aureus (MRSA) USA300; S. aureus (MRSA) USA300 (R), shown in µM) of the same compound?
Answer: The value was 4 µM.

Question: What about the “Modal MIC” value (S. aureus (MRSA) 1199B) of the same compound?
Answer: Its value is 2 µM.

Question: And the “Modal MIC” value ([3]; S. aureus (MSSA) ATCC 9144 (S), shown in µM)?
Answer: The value was 1 µM.

Reference: article PMC11191095, “QSAR Reveals Decreased Lipophilicity of Polar Residues Determines the Selectivity of Antimicrobial Peptide Activity” (ACS Omega, 2024)
